Experimental findings from patent US20250145609A1, “3-SUBSTITUTED PYRIDAZINE COMPOUNDS AS SMARCA2 AND/OR SMARCA4 DEGRADERS” (Aurigene Oncology Limited, priority 2022, published 2025) are described below.

Format in all cases: cell-based
The test system of assay [1] is VCaP cells. Description: Anti proliferative activity in VCaP cell line by CellTiter Glo assay. As to conditions: Homo sapiens, VCaP, 192 h, 8 days incubation, CellTiter Glo luminescence. As to the method: Example-P1: Determination of Anti Proliferative Activity of Compounds in Cell Lines VCaP by Cell Titer Glo©(Promega) Assay
VCaP (ATCC CRL-2876) cells were seeded in 96 well plate flat black clear bottom plates (Corning, Cat. No 3904) using complete DMEM Medium. Next day, compounds listed in the present invention were added to cells from 10 mM stocks made in DMSO (Sigma Cat no. D2650). Each concentration of compound was tested in triplicate with DMSO concentration at a final percentage not exceeding 0.3 in the cells. After the incubation of VCaP cells with compound for 8 days assay was terminated using 50 μl of CellTiter Glo© reagent (Promega, Cat. no G7572). CellTiter-Glo® Luminescent reagent determines the number of viable cells based on quantitation of ATP present which is an indicator of cell number and metabolic activity. Luminescence readings were taken in Victor-3 instrument. Percent inhibition of proliferation was calculated using formula, % inhibition=100−(luminescence value of test/luminescence value of DMSO control)*100. DMSO control (0%)=Cells in complete media with DMSO; blank=Media alone containing DMSO. EC50 was calculated using graph pad prism software.
Herein the group “A” refers to EC50 values lower than l0 nM, group “B” refers to EC50 values between l0 nM-100 nM (both inclusive) and group “C” refers to EC50 values greater than 100 nM.

The target in assay [2] is T1, SMARCA2 (Homo sapiens, UniProt P51531).
T1 construct: endogenous in cells; host or cells: VCaP (ATCC CRL-2876)
The experiment in a line: SMARCA2 degradation in VCaP cells by Western blot. As to conditions: at 100 nM, 16 hours. As to the method:
(§1) Example-P2: Determination of SMARCA2 and SMARCA4 Degradation in VCaP Cells by Western Blot
(§2) VCaP (ATCC CRL-2876) was plated in 6 well plates using complete Dulbecco's Modified Eagle's Medium. On the third day, compounds of present invention were added to cells from 10 mM stocks made in DMSO (Sigma Cat no. D2650). Each compound was tested at 100 nM concentration with DMSO not exceeding final percentage of 0.3 in the cells. Cells were incubated with the compound for 16 hours followed by harvesting with 1×RIPA lysis buffer (Thermo Fischer, catalogue number #89900) containing protease inhibitor cocktail (Sigma catalogue number #P-8340). Equal amount of protein was loaded on SDS PAGE gel for electrophoresis. Western blot was carried out for detection of either SMARCA2 (Cell signalling technologies, catalogue number #11966) or SMARCA4 antibody (Cell signalling technologies, catalogue number #52251). Beta-Tubulin antibody (Cell signalling technologies, catalogue number #86298) was used as loading control. Percentage of SMARCA2 or SMARCA4 degradation was calculated by using formula: […]

For assay [3], the target named is T2, SMARCA4 (Homo sapiens, UniProt P51532).
T2 construct: endogenous in cells; host or cells: VCaP (ATCC CRL-2876)
The experiment in a line: SMARCA4 degradation in VCaP cells by Western blot. Particulars: VCaP, 16 h, at 100 nM. As to the method: as §1, §2
On the technique in general: In western blotting, separated proteins are transferred to a membrane and probed.

One may read the EC50 as the concentration needed to bring the measured effect to its halfway point. A low value points to higher potency in that assay.

T1 sequence (P51531 whole entry): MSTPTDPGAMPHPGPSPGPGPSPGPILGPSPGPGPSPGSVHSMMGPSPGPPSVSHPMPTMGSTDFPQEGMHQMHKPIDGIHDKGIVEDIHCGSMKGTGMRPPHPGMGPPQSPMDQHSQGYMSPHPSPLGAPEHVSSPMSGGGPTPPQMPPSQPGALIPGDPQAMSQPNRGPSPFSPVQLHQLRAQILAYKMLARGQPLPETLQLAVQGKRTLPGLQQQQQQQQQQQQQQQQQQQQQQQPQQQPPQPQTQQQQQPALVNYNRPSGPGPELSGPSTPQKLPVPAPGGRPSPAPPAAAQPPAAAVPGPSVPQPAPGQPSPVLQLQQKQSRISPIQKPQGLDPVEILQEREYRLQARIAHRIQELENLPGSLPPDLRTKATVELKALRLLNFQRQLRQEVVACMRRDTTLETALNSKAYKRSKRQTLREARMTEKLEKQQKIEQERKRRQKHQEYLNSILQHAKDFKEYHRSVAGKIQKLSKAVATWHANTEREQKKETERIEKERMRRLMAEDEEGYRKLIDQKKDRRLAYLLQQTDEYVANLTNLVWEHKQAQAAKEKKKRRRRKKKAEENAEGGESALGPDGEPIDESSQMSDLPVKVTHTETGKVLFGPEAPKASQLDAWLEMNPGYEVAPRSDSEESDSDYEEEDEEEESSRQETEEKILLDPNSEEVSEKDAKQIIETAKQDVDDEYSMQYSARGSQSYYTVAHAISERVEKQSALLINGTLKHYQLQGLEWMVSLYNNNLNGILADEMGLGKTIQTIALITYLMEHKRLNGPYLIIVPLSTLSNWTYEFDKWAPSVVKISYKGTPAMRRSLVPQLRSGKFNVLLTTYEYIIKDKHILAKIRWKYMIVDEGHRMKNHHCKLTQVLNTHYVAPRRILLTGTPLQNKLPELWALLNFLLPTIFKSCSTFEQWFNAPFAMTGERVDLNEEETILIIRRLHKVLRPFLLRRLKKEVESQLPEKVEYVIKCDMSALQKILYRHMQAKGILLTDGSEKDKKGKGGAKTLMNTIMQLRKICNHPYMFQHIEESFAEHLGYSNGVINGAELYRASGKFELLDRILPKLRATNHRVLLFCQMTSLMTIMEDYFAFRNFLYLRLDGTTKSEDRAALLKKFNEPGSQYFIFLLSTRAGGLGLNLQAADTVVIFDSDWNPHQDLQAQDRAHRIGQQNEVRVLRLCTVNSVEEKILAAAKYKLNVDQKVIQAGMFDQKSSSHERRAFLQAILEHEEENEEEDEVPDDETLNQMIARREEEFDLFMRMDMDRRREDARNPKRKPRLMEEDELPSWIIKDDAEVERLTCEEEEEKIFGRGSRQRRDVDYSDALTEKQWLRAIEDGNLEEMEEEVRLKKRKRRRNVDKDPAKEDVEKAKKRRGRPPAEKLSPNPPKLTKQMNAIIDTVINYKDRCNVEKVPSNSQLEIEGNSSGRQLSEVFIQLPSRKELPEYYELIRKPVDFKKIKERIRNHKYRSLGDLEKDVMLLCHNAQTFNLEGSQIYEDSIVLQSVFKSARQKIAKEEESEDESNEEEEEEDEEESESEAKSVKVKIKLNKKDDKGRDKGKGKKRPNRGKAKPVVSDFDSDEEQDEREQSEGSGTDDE
T2 sequence (P51532 whole entry): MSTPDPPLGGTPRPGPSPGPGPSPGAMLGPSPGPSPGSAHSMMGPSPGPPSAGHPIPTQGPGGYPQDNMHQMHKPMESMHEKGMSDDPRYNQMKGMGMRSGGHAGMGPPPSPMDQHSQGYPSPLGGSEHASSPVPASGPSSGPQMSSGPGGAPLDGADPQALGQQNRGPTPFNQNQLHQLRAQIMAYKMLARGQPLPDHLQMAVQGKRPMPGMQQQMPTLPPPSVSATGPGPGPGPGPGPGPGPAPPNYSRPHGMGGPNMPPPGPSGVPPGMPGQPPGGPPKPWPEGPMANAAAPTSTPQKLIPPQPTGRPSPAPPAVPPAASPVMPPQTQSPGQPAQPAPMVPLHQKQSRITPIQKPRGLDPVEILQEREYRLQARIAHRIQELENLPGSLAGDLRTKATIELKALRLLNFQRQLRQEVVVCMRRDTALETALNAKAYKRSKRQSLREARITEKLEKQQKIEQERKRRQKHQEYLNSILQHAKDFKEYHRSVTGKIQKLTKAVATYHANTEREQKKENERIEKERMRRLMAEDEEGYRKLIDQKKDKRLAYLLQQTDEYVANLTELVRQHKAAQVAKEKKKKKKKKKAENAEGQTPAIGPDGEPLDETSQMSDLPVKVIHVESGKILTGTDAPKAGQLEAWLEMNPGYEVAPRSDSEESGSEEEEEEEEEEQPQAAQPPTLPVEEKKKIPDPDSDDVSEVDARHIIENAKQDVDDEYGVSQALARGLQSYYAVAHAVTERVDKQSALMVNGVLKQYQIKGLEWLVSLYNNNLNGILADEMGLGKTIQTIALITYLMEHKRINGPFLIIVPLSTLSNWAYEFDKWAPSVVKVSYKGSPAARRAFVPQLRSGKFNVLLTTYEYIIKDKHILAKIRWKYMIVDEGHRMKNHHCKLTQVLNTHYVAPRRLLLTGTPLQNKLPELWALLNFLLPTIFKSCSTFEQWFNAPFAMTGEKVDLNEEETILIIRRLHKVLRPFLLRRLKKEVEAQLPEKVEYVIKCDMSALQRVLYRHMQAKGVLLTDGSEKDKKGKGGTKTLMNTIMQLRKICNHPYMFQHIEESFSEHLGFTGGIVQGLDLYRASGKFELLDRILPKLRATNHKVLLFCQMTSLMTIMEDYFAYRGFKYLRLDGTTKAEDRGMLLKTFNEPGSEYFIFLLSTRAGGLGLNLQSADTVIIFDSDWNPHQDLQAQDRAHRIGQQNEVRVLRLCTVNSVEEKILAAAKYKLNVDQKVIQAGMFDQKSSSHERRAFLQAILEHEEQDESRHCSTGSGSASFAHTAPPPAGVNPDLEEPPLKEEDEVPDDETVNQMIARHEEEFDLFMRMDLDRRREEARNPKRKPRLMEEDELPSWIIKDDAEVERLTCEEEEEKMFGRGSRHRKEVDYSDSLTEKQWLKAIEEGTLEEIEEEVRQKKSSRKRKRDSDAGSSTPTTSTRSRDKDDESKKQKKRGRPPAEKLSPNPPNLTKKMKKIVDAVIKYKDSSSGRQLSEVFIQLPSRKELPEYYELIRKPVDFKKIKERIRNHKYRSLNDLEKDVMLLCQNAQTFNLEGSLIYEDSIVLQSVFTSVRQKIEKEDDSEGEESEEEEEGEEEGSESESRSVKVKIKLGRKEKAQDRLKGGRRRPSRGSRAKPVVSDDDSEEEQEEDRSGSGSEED

Compound `Cc1ncsc1-c1ccc([C@H](C)NC(=O)[C@@H]2C[C@@H](O)CN2C(=O)[C@@H](NC(=O)CC2CCC(c3ccc(-c4cc(-c5ccccc5O)nnc4N)cc3)CC2)C(C)(C)C)cc1` (single isomer, unassigned) [Compound 44] had an EC50 in assay [1] below 0.01 µM. The “Percent degradation SMARCA2” value in assay [2] is 98%. In assay [3], the Percent SMARCA4 degradation at 0.1 µM amounted to 89%.
In the case of `Cc1ncsc1-c1ccc([C@H](C)NC(=O)[C@@H]2C[C@@H](O)CN2C(=O)[C@@H](c2cc(-c3ccc(-c4cc(-c5ccccc5O)nnc4N)cc3)no2)C(C)C)cc1` [Compound 6, (2S,4R)-1-((R)-2-(3-(4-(3-amino-6-(2-hydroxyphenyl)pyridazin-4-yl)phenyl)isoxazol-5-yl)-3-methylbutanoyl)-4-hydroxy-N—((S)-1-(4-(4-methylthiazol-5-yl)phenyl)ethyl)pyrrolidine-2-carboxamide], in assay [1], the EC50 is 0.01 to 0.1 µM. Moreover, the “Percent degradation SMARCA2” value in assay [2] was determined as 100%. The compound further yielded a Percent SMARCA4 degradation at 0.1 µM in assay [3] of 85%.
On the same counts, the results for `Cc1ncsc1-c1ccc([C@H](C)NC(=O)[C@@H]2C[C@@H](O)CN2C(=O)C(C(C)C)n2cc(-c3ccc(-c4cc(-c5ccccc5O)nnc4N)cc3)cn2)cc1` (stereo partly drawn) [Compound 11, (2S,4R)-1-(2-(4-(4-(3-amino-6-(2-hydroxyphenyl)pyridazin-4-yl)phenyl)-1H-pyrazol-1-yl)-3-methylbutanoyl)-4-hydroxy-N—((S)-1-(4-(4-methylthiazol-5-yl)phenyl)ethyl)pyrrolidine-2-carboxamide] are 0.01 to 0.1 µM, 98% and 51%.
On the same counts, the results for `Cc1ncsc1-c1ccc([C@H](C)NC(=O)[C@@H]2C[C@@H](O)CN2C(=O)[C@@H](NC(=O)CN2CCN(c3ccc(-c4cc(-c5ccccc5O)nnc4N)cc3)CC2)C(C)(C)C)cc1` [Compound 12, (2S,4R)-1-((S)-2-(2-(4-(4-(3-amino-6-(2-hydroxyphenyl)pyridazin-4-yl)phenyl)piperazin-1-yl)acetamido)-3,3-dimethylbutanoyl)-4-hydroxy-N—((S)-1-(4-(4-methylthiazol-5-yl)phenyl)ethyl)pyrrolidine-2-carboxamide] are below 0.01 µM, 98% and 54%.
On to `Cc1ncsc1-c1ccc([C@H](C)NC(=O)[C@@H]2C[C@@H](O)CN2C(=O)[C@@H](NC(=O)CCCC#Cc2ccc(-c3cc(-c4ccccc4O)nnc3N)cc2)C(C)(C)C)cc1` [Compound 19, (2S,4R)-1-((S)-2-(6-(4-(3-amino-6-(2-hydroxyphenyl)pyridazin-4-yl)phenyl)hex-5-ynamido)-3,3-dimethylbutanoyl)-4-hydroxy-N—((S)-1-(4-(4-methylthiazol-5-yl)phenyl)ethyl)pyrrolidine-2-carboxamide], for which the EC50 in assay [1] was below 0.01 µM. Besides, the “Percent degradation SMARCA2” value in assay [2] turned out to be 96%. This compound also displayed a Percent SMARCA4 degradation at 0.1 µM in assay [3] of 96%.
`Cc1ncsc1-c1ccc([C@H](C)NC(=O)[C@@H]2C[C@@H](O)CN2C(=O)[C@@H](NC(=O)CC#Cc2ccc(-c3cc(-c4ccccc4O)nnc3N)cc2)C(C)(C)C)cc1` [Compound 21, (2S,4R)-1-((S)-2-(4-(4-(3-amino-6-(2-hydroxyphenyl)pyridazin-4-yl)phenyl)but-3-ynamido)-3,3-dimethylbutanoyl)-4-hydroxy-N-((S)-1-(4-(4-methylthiazol-5-yl)phenyl)ethyl)pyrrolidine-2-carboxamide] came in with an EC50 in assay [1] above 0.1 µM. Moreover, the “Percent degradation SMARCA2” value in assay [2] amounted to 97%. In assay [3], this compound came in with a Percent SMARCA4 degradation at 0.1 µM of 71%.
On the same counts, the results for `Cc1ncsc1-c1ccc([C@H](C)NC(=O)[C@@H]2C[C@@H](O)CN2C(=O)C(c2cc(OCCOc3ccc(-c4cc(-c5ccccc5O)nnc4N)cc3)no2)C(C)C)cc1` (stereo partly drawn) [Compound 24, (2S,4R)-1-(2-(3-(2-(4-(3-amino-6-(2-hydroxyphenyl)pyridazin-4-yl)phenoxy)ethoxy)isoxazol-5-yl)-3-methylbutanoyl)-4-hydroxy-N—((S)-1-(4-(4-methylthiazol-5-yl)phenyl)ethyl)pyrrolidine-2-carboxamide] are below 0.01 µM, 95% and 96%.
On the same counts, the results for `Cc1ncsc1-c1ccc([C@H](C)NC(=O)[C@@H]2C[C@@H](O)CN2C(=O)[C@@H](NC(=O)CN2CCN(c3ccc(-c4cc(-c5ccccc5O)nnc4N)cn3)CC2)C(C)(C)C)cc1` [Compound 25, (2S,4R)-1-((S)-2-(2-(4-(5-(3-amino-6-(2-hydroxyphenyl)pyridazin-4-yl)pyridin-2-yl)piperazin-1-yl)acetamido)-3,3-dimethylbutanoyl)-4-hydroxy-N—((S)-1-(4-(4-methylthiazol-5-yl)phenyl)ethyl)pyrrolidine-2-carboxamide] are below 0.01 µM, 97% and 92%.
The matching figures for `Cc1ncsc1-c1ccc([C@H](C)NC(=O)[C@@H]2C[C@@H](O)CN2C(=O)[C@@H](NC(=O)CN2CCN(c3ccc(-c4cc(-c5ccccc5O)nnc4N)c(F)c3)CC2)C(C)(C)C)cc1` [Compound 28, (2S,4R)-1-((S)-2-(2-(4-(4-(3-amino-6-(2-hydroxyphenyl)pyridazin-4-yl)-3-fluorophenyl)piperazin-1-yl)acetamido)-3,3-dimethylbutanoyl)-4-hydroxy-N—((S)-1-(4-(4-methylthiazol-5-yl)phenyl)ethyl)pyrrolidine-2-carboxamide]: 0.01 to 0.1 µM, 96% and 67%.
`Cc1ncsc1-c1ccc([C@H](C)NC(=O)[C@@H]2C[C@@H](O)CN2C(=O)[C@@H](NC(=O)CN2CCC(c3ccc(-c4cc(-c5ccccc5O)nnc4N)cc3)CC2)C(C)(C)C)cc1` [Compound 29, (2S,4R)-1-((S)-2-(2-(4-(4-(3-amino-6-(2-hydroxyphenyl)pyridazin-4-yl)phenyl)piperidin-1-yl)acetamido)-3,3-dimethylbutanoyl)-4-hydroxy-N—((S)-1-(4-(4-methylthiazol-5-yl)phenyl)ethyl)pyrrolidine-2-carboxamide] came in with an EC50 in assay [1] below 0.01 µM. For the same compound, the “Percent degradation SMARCA2” value in assay [2] amounted to 95%. In assay [3], this compound registered a Percent SMARCA4 degradation at 0.1 µM of 95%.
Take `Cc1ncsc1-c1ccc(CNC(=O)[C@@H]2C[C@@H](O)CN2C(=O)[C@@H](NC(=O)CN2CCC(c3ccc(-c4cc(-c5ccccc5O)nnc4N)cc3)CC2)C(C)(C)C)cc1` [Compound 30, (2S,4R)-1-((S)-2-(2-(4-(4-(3-amino-6-(2-hydroxyphenyl)pyridazin-4-yl)phenyl)piperidin-1-yl)acetamido)-3,3-dimethylbutanoyl)-4-hydroxy-N-(4-(4-methylthiazol-5-yl)benzyl)pyrrolidine-2-carboxamide]: the EC50 in assay [1] fell in the range of 0.01 to 0.1 µM. Further, the “Percent degradation SMARCA2” value in assay [2] worked out at 92%. Besides, the Percent SMARCA4 degradation at 0.1 µM in assay [3] amounted to 63%.
In assay [1], `Cc1ncsc1-c1ccc([C@H](C)NC(=O)[C@@H]2C[C@@H](O)CN2C(=O)[C@@H](NC(=O)CN2CCC(c3ccc(-c4cc(-c5cc(F)ccc5O)nnc4N)cc3)CC2)C(C)(C)C)cc1` [Compound 31, (2S,4R)-1-((S)-2-(2-(4-(4-(3-amino-6-(5-fluoro-2-hydroxyphenyl)pyridazin-4-yl)phenyl)piperidin-1-yl)acetamido)-3,3-dimethylbutanoyl)-4-hydroxy-N-((S)-1-(4-(4-methylthiazol-5-yl)phenyl)ethyl)pyrrolidine-2-carboxamide] came in with an EC50 of 0.01 to 0.1 µM. For the same compound, the “Percent degradation SMARCA2” value in assay [2] stood at 99%. This compound gave a Percent SMARCA4 degradation at 0.1 µM in assay [3] of 90%.
The matching figures for `Cc1ncsc1-c1ccc([C@H](C)NC(=O)[C@@H]2C[C@@H](O)CN2C(=O)[C@@H](NC(=O)CC2CCN(c3ccc(-c4cc(-c5ccccc5O)nnc4N)cc3)CC2)C(C)(C)C)cc1` [Compound 38, (2S,4R)-1-((S)-2-(2-(1-(4-(3-amino-6-(2-hydroxyphenyl)pyridazin-4-yl)phenyl)piperidin-4-yl)acetamido)-3,3-dimethylbutanoyl)-4-hydroxy-N-((S)-1-(4-(4-methylthiazol-5-yl)phenyl)ethyl)pyrrolidine-2-carboxamide]: 0.01 to 0.1 µM, 100% and 91%.
